Measured values taken from patent US20210380548A1, “Fused [1,2,4]Thiadiazine Derivatives Which Act as KAT Inhibitors of the MYST Family” (CTxT Pty Limited, priority 2017, published 2021).

What was measured:
HBO-KAT7 [1] = target: T1, HBO-KAT7 (Homo sapiens, UniProt O95251); assay: Acetyltransferase biochemical assay (AlphaScreen), KAT7; settings: Table 3 (HBO-KAT7); 0.4 μM Acetyl coenzyme A, histone H3.1, 40 nM enzyme
T1 construct: encoding amino acid residues 325 to 611 (Uniprot 095251-1) of human KAT7; made in house; host or cells: E. coli BL21 DE3 RIL
T1 sequence (O95251 with tags, fused parts or gaps): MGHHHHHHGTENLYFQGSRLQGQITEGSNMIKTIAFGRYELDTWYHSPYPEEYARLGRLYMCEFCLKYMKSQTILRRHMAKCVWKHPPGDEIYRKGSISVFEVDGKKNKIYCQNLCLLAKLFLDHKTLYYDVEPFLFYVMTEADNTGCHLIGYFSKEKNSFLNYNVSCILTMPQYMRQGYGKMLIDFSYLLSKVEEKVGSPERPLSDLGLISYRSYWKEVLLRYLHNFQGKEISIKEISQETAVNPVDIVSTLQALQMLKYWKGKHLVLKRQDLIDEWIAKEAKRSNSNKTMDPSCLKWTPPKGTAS

TIP60-KAT5 [2] = target: T2, TIP60-KAT5 (Homo sapiens, UniProt Q92993); assay: Revised Acetyltransferase Biochemical Assay, KAT5; settings: 10 nM KAT5, 1 μM AcCoA, 100 nM histone H4, 90 min
T2 construct: encoding amino acid residues 2 to 461 (Uniprot Q92993-2) of human KAT5 isoform; made in house; host or cells: E. coli BL21 DE3
T2 sequence (Q92993 2-461 isoform Q92993-2): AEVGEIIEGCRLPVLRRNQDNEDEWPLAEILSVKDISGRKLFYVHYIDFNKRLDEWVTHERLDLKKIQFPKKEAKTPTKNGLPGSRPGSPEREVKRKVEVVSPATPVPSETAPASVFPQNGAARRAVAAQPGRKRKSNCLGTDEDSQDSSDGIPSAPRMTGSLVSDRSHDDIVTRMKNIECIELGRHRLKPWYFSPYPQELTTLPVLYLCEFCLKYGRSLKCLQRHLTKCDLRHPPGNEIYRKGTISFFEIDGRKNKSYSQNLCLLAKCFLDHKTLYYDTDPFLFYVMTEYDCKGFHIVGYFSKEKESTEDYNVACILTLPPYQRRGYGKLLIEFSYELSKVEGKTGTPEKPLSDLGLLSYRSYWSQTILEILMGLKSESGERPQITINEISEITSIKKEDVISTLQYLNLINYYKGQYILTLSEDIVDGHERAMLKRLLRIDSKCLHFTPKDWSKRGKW

MOF-KAT8 [3] = target: T3, MOF-KAT8 (Homo sapiens, UniProt Q9H7Z6); assay: Revised Acetyltransferase Biochemical Assay, KAT8
T3 sequence (Q9H7Z6 177-447): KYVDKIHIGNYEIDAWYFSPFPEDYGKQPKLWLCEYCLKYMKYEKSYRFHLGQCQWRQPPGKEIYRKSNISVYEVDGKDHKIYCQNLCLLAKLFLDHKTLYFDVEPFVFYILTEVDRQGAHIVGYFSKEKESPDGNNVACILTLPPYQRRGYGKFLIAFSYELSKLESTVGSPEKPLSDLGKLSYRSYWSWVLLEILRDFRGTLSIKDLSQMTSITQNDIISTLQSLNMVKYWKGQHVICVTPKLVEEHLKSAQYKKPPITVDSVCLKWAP

[4] = tested on: histone H3K23 acetylation (KATE mediated) in U2OS cells; assay: Histone H3 Lysine 23 Acetylation Biomarker Assay (U2OS); format: cell-based; settings: Homo sapiens, 96 well, 24 hours incubation
Protocol: Compounds may be tested for their ability to inhibit acetylation of the histone H3K23 marker, which is KATE mediated, in the following assay:
The cell line U2OS was seeded at a density of 9,000 cells per well in 96 well optical quality tissue culture plates in RPMI medium and 10% foetal bovine serum, and allowed to adhere for 24 hours under standard culture conditions (37 degree Celsius, 5% CO2). At the end of this period the medium was aspirated. Compound dilutions prepared in DMSO were added to medium, with negative control wells reserved for treatment with DMSO only and 100% inhibition positive controls receiving a potent inhibitor compound (e.g. cas 2055397-28-7, benzoic acid, 3-fluoro-5-(2-pyridinyl)-, 2-[(2-fluorophenyl)sulfonyl]hydrazide) (Baell, J., Nguyen, H. N., Leaver, D. J., Cleary, B. L., Lagiakos, H. R., Sheikh, B. N., Thomas. T. J., Aryl sulfonohydrazides, WO2016198507A1, 2016) at 10 μM concentration and 200 μL transferred to the cells. After incubation for 24 hours, the cells were fixed with 3.7% formaldehyde in PBS for 20 minutes at room temperature, washed (5×5 minutes) with phosphate buffer saline containing 0.1% Tween 20 and blocked with Odyssey blocking buffer (LI-COR, Lincoln, Nebr.) containing 0.1% TritonX100. Anti-H3K23ac specific antibody (Abcam ab177275) in Odyssey blocking buffer containing 0.1% Tween 20 was added and incubated for 16 hours at 4 degree Celsius. After washing (as above), a secondary antibody labelled with Alexa647 dye (LifeTechnologies) and Hoechst 33342 (1 μg/mL, SigmaAldrich) were added for 1 hour incubation. Plates were washed as previously and read on a PerkinElmer Phenix high content imaging platform. Using a Columbus image analysis pipeline, individual nuclei were located by Hoechst 33342 stain and the acetylation level was calculated from the Alexa647-related intensity in the same area. The resulting mean intensity per cell was directly converted to percent inhibition relative to controls on the same plate and the data fitted against a four-parameter logistic model to determine the 50% inhibitory concentration (IC50).

MOZ-KAT6A [5] = target: T4, MOZ-KAT6A (Homo sapiens, UniProt Q92794, A567V); assay: Revised Acetyltransferase Biochemical Assay, KAT6A; settings: Table 8 (MOZ-KAT6A), 1 μM Acetyl coenzyme A
T4 construct: encoding amino acid residues 507 to 778 (Uniprot Q92794-1) of human KAT6A; made in house; host or cells: E. coli BL21 DE3
T4 sequence (Q92794 507-778 A567V limits assumed): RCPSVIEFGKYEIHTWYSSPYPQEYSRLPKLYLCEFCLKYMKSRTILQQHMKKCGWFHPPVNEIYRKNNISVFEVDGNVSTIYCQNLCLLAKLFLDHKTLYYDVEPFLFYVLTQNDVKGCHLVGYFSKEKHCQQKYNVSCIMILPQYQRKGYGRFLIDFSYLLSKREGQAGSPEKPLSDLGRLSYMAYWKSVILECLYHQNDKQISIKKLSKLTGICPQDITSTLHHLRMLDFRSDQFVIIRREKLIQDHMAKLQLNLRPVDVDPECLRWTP

TIP60-KAT5 [6] = target: T2, TIP60-KAT5; assay: Acetyltransferase biochemical assay (AlphaScreen), KAT5; settings: Table 1 (TIP60-KAT5); 0.4 μM Acetyl coenzyme A, histone H4, 10 nM enzyme
HBO-KAT7 [7] = target: T1, HBO-KAT7; assay: Revised Acetyltransferase Biochemical Assay, KAT7; settings: Table 9 (HBO-KAT7), 1 μM Acetyl coenzyme A
MOZ-KAT6A [8] = target: T4, MOZ-KAT6A; assay: Acetyltransferase biochemical assay (AlphaScreen), KAT6A; settings: Table 2 (MOZ-KAT6A); 10 μM Acetyl coenzyme A, histone H3.1, 5 nM enzyme
[9] = tested on: histone H2A.Z Lysine 7 acetylation (TIP60 mediated) in U2OS cells; assay: H2A.Z Lysine 7 Acetylation Biomarker Assay (384-well, U2OS); format: cell-based; settings: Homo sapiens, serum free medium, 24 hours incubation
Protocol: Compounds may be tested for their ability to inhibit the histone H2A.Z Lysine 7 acetylation marker (which is TIP60 mediated) in the following assay:
The cell line U2OS was seeded at a density of 3,000 cells per well in 384-well optical quality tissue culture plates in RPMI medium supplemented with 10% foetal bovine serum and 10 mM Hepes. The cells were allowed to adhere for 24 hours under standard culture conditions (37 degree Celsius, 5% CO2). At the end of this period the cells were washed with serum free medium. […] After incubation for 24 hours, the cells were fixed with 4% formaldehyde in PBS for 15 minutes at room temperature, washed with phosphate buffer saline and blocked with blocking buffer containing 0.2% TritonX100 and 2% BSA. Anti-H2A.ZK7ac specific antibody (Abcam) in blocking buffer was added and incubated overnight at 4 degree Celsius. After washing, a secondary antibody labelled with AlexaFluor 488 dye (ThermoFisher) and Hoechst 33342 (1 μg/mL, Life Technologies) were added for 2 hours incubation at room temperature. Plates were washed and read on a PerkinElmer Opera HCS high content imaging platform. Using a Columbus image analysis pipeline, individual nuclei were located by Hoechst 33342 stain and the acetylation level was calculated from the AlexaFluor 488-related intensity in the same area. The resulting mean intensity per cell was converted to percent inhibition relative to controls on the same plate and the data fitted against a four-parameter logistic model to determine the 50% inhibitory concentration (IC50).

MOF-KAT8 [10] = target: T3, MOF-KAT8; assay: Acetyltransferase biochemical assay (AlphaScreen), KAT8; settings: Table 4 (MOF-KAT8); 0.4 μM Acetyl coenzyme A, histone H4, 20 nM enzyme
[11] = tested on: histone H3 Lysine 14 acetylation (HBO1 mediated) in U2OS cells; assay: Histone H3 Lysine 14 Acetylation Biomarker Assay (384-well, U2OS); format: cell-based; settings: Homo sapiens, serum free medium, 24 hours incubation
Protocol: Compounds may be tested for their ability to inhibit acetylation of the histone H3 Lysine 14 (which is HBO1 mediated) marker in the following assay:
The cell line U2OS was seeded at a density of 3,000 cells per well in 384-well optical quality tissue culture plates in RPMI medium supplemented with 10% foetal bovine serum and 10 mM Hepes. The cells were allowed to adhere for 24 hours under standard culture conditions (37 degree Celsius, 5% CO2). At the end of this period the cells were washed with serum free medium. Compound dilutions prepared in DMSO were added to the serum free medium, with negative control wells reserved for treatment with DMSO only and 100% inhibition positive controls receiving a potent inhibitor compound (e.g. (Z)-4-fluoro-N-((3-hydroxyphenyl)sulfonyl)-5-methyl-[1,1′-biphenyl]-3-carbohydrazonic acid) at 10 μM concentration. After incubation for 24 hours, the cells were fixed with 4% formaldehyde in PBS for 15 minutes at room temperature, washed with phosphate buffer saline and blocked with blocking buffer containing 0.2% TritonX100 and 2% BSA. Anti-H3K14ac specific antibody (Cell Signalling Technologies) in blocking buffer was added and incubated overnight at 4 degree Celsius. After washing, a secondary antibody labelled with AlexaFluor 488 dye (ThermoFisher) and Hoechst 33342 (1 μg/mL, Life Technologies) were added for 2 hours incubation at room temperature. Plates were washed and read on a
PerkinElmer Opera HCS high content imaging platform. Using a Columbus image analysis pipeline, individual nuclei were located by Hoechst 33342 stain and the acetylation level was calculated from the AlexaFluor 488-related intensity in the same area. The resulting mean intensity per cell was converted to percent inhibition relative to controls on the same plate and the data fitted against a four-parameter logistic model to determine the 50% inhibitory concentration (IC50).

Compound	IC50 (HBO-KAT7 [1])	IC50 (TIP60-KAT5 [2])	IC50 (MOF-KAT8 [3])	IC50 [4]	IC50 (MOZ-KAT6A [5])	IC50 (TIP60-KAT5 [6])	IC50 (HBO-KAT7 [7])	IC50 (MOZ-KAT6A [8])	IC50 [9]	IC50 (MOF-KAT8 [10])	IC50 [11]
O=C(NCC(O)c1ccccc1OC(F)F)C1=Nc2ccc(I)cc2S(=O)(=O)N1 (stereo not shown) [Example 57, N-(2-(2-(difluoromethoxy)phenyl)-2-hydroxyethyl)-7-iodo-2H-benzo[e][1,2,4]thiadiazine-3-carboxamide 1,1-dioxide]	2530 nM	725 nM	11300 nM	> 10000 nM	403 nM	2800 nM	840 nM				
O=C(NCC(c1ccccc1)c1ncco1)C1=Nc2ccncc2S(=O)(=O)N1 (stereo not shown) [Example 97]	49400 nM	26100 nM		> 10000 nM	417 nM	> 125000 nM		4000 nM			
COc1ccccc1C(CNC(=O)C1=Nc2ccc(Cl)cc2S(=O)(=O)N1)c1ncco1 (stereo not shown) [Example 178]	571 nM	852 nM	61000 nM		21 nM		112 nM		20500 nM	106000 nM	
CNC(=O)CCCOC(=O)C(CNC(=O)C1=Nc2ccc(I)cc2S(=O)(=O)N1)c1ccccc1 (stereo not shown) [Example 180]		249 nM			229 nM		557 nM		37500 nM	77000 nM	
CNC(=O)CCOC(=O)C(CNC(=O)C1=Nc2ccc(I)cc2S(=O)(=O)N1)c1ccccc1 (stereo not shown) [Example 183]		68 nM	30500 nM		44 nM		718 nM		33200 nM	36300 nM	
COc1ccccc1C(CNC(=O)C1=Nc2ccc(I)cc2S(=O)(=O)N1)c1ncco1 (stereo not shown) [Example 184, 7-iodo-N-(2-(2-methoxyphenyl)-2-(oxazol-2-yl)ethyl)-2H-benzo[e][1,2,4]thiadiazine-3-carboxamide 1,1-dioxide]		99 nM	10200 nM		8 nM		114 nM		8280 nM	9220 nM	
CS(=O)(=O)c1ccc2c(c1)S(=O)(=O)NC(C(=O)NCC(c1ccccc1)c1ncco1)=N2 (stereo not shown) [Example 191]		919 nM			43 nM		243 nM		> 40000 nM		
CC(O)c1ccc2c(c1)S(=O)(=O)NC(C(=O)NCC(c1ccccc1)c1ncco1)=N2 (stereo not shown) [Example 212, 7-(1-Hydroxyethyl)-N-(2-(oxazol-2-yl)-2-phenylethyl)-2H-benzo[e][1,2,4]thiadiazine-3-carboxamide 1,1-dioxide]		4000 nM			241 nM		1090 nM			40800 nM	4150 nM
Cc1cccc(C(CNC(=O)C2=Nc3ccc(Cl)cc3S(=O)(=O)N2)c2ncco2)c1 (stereo not shown) [Example 234, 7-chloro-N-(2-(oxazol-2-yl)-2-(m-tolyl)ethyl)-2H-benzo[e][1,2,4]thiadiazine-3-carboxamide 1,1-dioxide]		1370 nM	23600 nM		72 nM		89 nM		6150 nM	57300 nM	
O=C(NCC(c1ncco1)c1ccccc1F)C1=Nc2ccc(I)cc2S(=O)(=O)N1 (stereo not shown) [Example 235, N-(2-(2-fluorophenyl)-2-(oxazol-2-yl)ethyl)-7-iodo-2H-benzo[e][1,2,4]thiadiazine-3-carboxamide 1,1-dioxide]		34 nM	3230 nM		9 nM		115 nM		1080 nM	6590 nM	
O=C(NCC(c1ncco1)c1ccccc1F)C1=Nc2ccc(Cl)cc2S(=O)(=O)N1 (stereo not shown) [Example 236, 7-chloro-N-(2-(2-fluorophenyl)-2-(oxazol-2-yl)ethyl)-2H-benzo[e][1,2,4]thiadiazine-3-carboxamide 1,1-dioxide]		113 nM	19600 nM		10 nM		73 nM		7850 nM	20200 nM	
O=C(NCCc1ccccc1-n1ccnn1)C1=Nc2ccc(I)cc2S(=O)(=O)N1 [Example 241, N-(2-(1H-1,2,3-triazol-1-yl)phenethyl)-7-iodo-2H-benzo[e][1,2,4]thiadiazine-3-carboxamide 1,1-dioxide]		1010 nM			82 nM		948 nM		> 40000 nM		
O=C(NCC(c1ccccn1)n1cccn1)C1=Nc2ccc(Br)cc2S(=O)(=O)N1 (stereo not shown) [Example 244, N-(2-(1H-Pyrazol-1-yl)-2-(pyridin-2-yl)ethyl)-7-bromo-4H-benzo[e][1,2,4]thiadiazine-3-carboxamide 1,1-dioxide]		14600 nM			6830 nM		3830 nM			82900 nM	> 40000 nM
